# Measured values taken from PubChem BioAssay (NCI).
#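 These data come from cells grown in 96-well plates and exposed to compound for 48 hours at five concentrations. TGI denotes the concentration required for complete inhibition of growth.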
# What was measured:
# Assay in all cases: NCI anticancer screen, dose series, 48 h
# NCI-H460 lung = system: NCI-H460 lung
# UACC-62 melanoma = system: UACC-62 melanoma
# M14 melanoma = system: M14 melanoma
# HS 578T breast = system: HS 578T breast
# SK-MEL-2 melanoma = system: SK-MEL-2 melanoma
# CAKI-1 renal = system: CAKI-1 renal
# RXF 393 renal = system: RXF 393 renal
# SN12C renal = system: SN12C renal
# NCI-H522 lung = system: NCI-H522 lung
# A549 NSCLC = system: A549 NSCLC
# OVCAR-3 ovarian = system: OVCAR-3 ovarian
# MOLT-4 leukemia = system: MOLT-4 leukemia
# U251 CNS = system: U251 CNS
# COLO 205 colon = system: COLO 205 colon
# SW-620 colon = system: SW-620 colon
# HCT-116 colon = system: HCT-116 colon
# MDA-MB-435 = system: MDA-MB-435
# RPMI-8226 leukemia = system: RPMI-8226 leukemia
# UO-31 renal = system: UO-31 renal
# SK-OV-3 ovarian = system: SK-OV-3 ovarian
# HCC-2998 colon = system: HCC-2998 colon
# HT29 colon = system: HT29 colon
# MCF7 breast = system: MCF7 breast
# 786-0 renal = system: 786-0 renal
# ACHN renal = system: ACHN renal
# T-47D breast = system: T-47D breast
# SNB-19 CNS = system: SNB-19 CNS
# OVCAR-5 ovarian = system: OVCAR-5 ovarian
# SK-MEL-28 melanoma = system: SK-MEL-28 melanoma
# UACC-257 melanoma = system: UACC-257 melanoma
# BT-549 breast = system: BT-549 breast
# SF-268 CNS = system: SF-268 CNS
# NCI-H226 lung = system: NCI-H226 lung
# HL-60(TB) leukemia = system: HL-60(TB) leukemia
# LOX IMVI melanoma = system: LOX IMVI melanoma
# OVCAR-8 ovarian = system: OVCAR-8 ovarian
# CCRF-CEM leukemia = system: CCRF-CEM leukemia
# MDA-MB-231 breast = system: MDA-MB-231 breast
# SK-MEL-5 melanoma = system: SK-MEL-5 melanoma
# OVCAR-4 ovarian = system: OVCAR-4 ovarian
# NCI-H23 lung = system: NCI-H23 lung
# MALME-3M melanoma = system: MALME-3M melanoma
# SF-295 CNS = system: SF-295 CNS
# MDA-N = system: MDA-N
# HOP-62 NSCLC = system: HOP-62 NSCLC
# SR leukemia = system: SR leukemia
# KM12 colon = system: KM12 colon
# TK-10 renal = system: TK-10 renal
# PC-3 prostate = system: PC-3 prostate
# NCI/ADR-RES ovarian = system: NCI/ADR-RES ovarian
# SF-539 CNS = system: SF-539 CNS
# IGROV1 ovarian = system: IGROV1 ovarian
# K-562 leukemia = system: K-562 leukemia
# EKVX NSCLC = system: EKVX NSCLC
# HOP-92 NSCLC = system: HOP-92 NSCLC
# A498 renal = system: A498 renal
# DU-145 prostate = system: DU-145 prostate
# HCT-15 colon = system: HCT-15 colon
# SNB-75 CNS = system: SNB-75 CNS
# DLD-1 colon = system: DLD-1 colon
# M19-MEL melanoma = system: M19-MEL melanoma
# KM20L2 colon = system: KM20L2 colon
# XF 498 CNS = system: XF 498 CNS
# DMS 114 small cell lung = system: DMS 114 small cell lung
# SNB-78 CNS = system: SNB-78 CNS
structure (smiles),measurement,setting,value
CCOC(=O)c1ccc(-c2cccs2)n1C,TGI,NCI-H460 lung,> 100 µM
same,TGI,UACC-62 melanoma,> 100 µM
same,TGI,M14 melanoma,> 100 µM
same,TGI,HS 578T breast,> 100 µM
same,TGI,SK-MEL-2 melanoma,> 100 µM
same,TGI,CAKI-1 renal,> 100 µM
same,TGI,RXF 393 renal,> 100 µM
same,TGI,SN12C renal,> 100 µM
same,TGI,NCI-H522 lung,> 100 µM
same,TGI,A549 NSCLC,> 100 µM
same,TGI,OVCAR-3 ovarian,> 100 µM
same,TGI,MOLT-4 leukemia,> 100 µM
same,TGI,U251 CNS,> 100 µM
same,TGI,COLO 205 colon,> 100 µM
same,TGI,SW-620 colon,> 100 µM
same,TGI,HCT-116 colon,> 100 µM
same,TGI,MDA-MB-435,> 100 µM
same,TGI,RPMI-8226 leukemia,> 100 µM
same,TGI,UO-31 renal,> 100 µM
same,TGI,SK-OV-3 ovarian,> 100 µM
same,TGI,HCC-2998 colon,> 100 µM
same,TGI,HT29 colon,> 100 µM
same,TGI,MCF7 breast,> 100 µM
same,TGI,786-0 renal,> 100 µM
same,TGI,ACHN renal,> 100 µM
same,TGI,T-47D breast,> 92.4 µM
same,TGI,SNB-19 CNS,> 100 µM
same,TGI,OVCAR-5 ovarian,> 100 µM
same,TGI,SK-MEL-28 melanoma,> 100 µM
same,TGI,UACC-257 melanoma,> 100 µM
same,TGI,BT-549 breast,> 100 µM
same,TGI,SF-268 CNS,> 100 µM
same,TGI,NCI-H226 lung,> 100 µM
same,TGI,HL-60(TB) leukemia,> 100 µM
same,TGI,LOX IMVI melanoma,> 100 µM
same,TGI,OVCAR-8 ovarian,> 100 µM
same,TGI,CCRF-CEM leukemia,> 100 µM
same,TGI,MDA-MB-231 breast,> 100 µM
same,TGI,SK-MEL-5 melanoma,> 100 µM
same,TGI,OVCAR-4 ovarian,> 100 µM
same,TGI,NCI-H23 lung,> 100 µM
same,TGI,MALME-3M melanoma,> 100 µM
same,TGI,SF-295 CNS,> 100 µM
same,TGI,MDA-N,> 100 µM
same,TGI,HOP-62 NSCLC,> 100 µM
same,TGI,SR leukemia,> 100 µM
same,TGI,KM12 colon,> 100 µM
same,TGI,TK-10 renal,> 100 µM
same,TGI,PC-3 prostate,> 100 µM
same,TGI,NCI/ADR-RES ovarian,> 100 µM
same,TGI,SF-539 CNS,> 100 µM
same,TGI,IGROV1 ovarian,> 100 µM
same,TGI,K-562 leukemia,> 100 µM
same,TGI,EKVX NSCLC,> 100 µM
same,TGI,HOP-92 NSCLC,> 94.8 µM
same,TGI,A498 renal,> 100 µM
same,TGI,DU-145 prostate,> 100 µM
same,TGI,HCT-15 colon,> 100 µM
same,TGI,SNB-75 CNS,> 100 µM
NC(N)=NS(=O)(=O)c1ccc(Nc2c3ccccc3nc3c(C(=O)N4CCN(CCO)CC4)ccc(Cl)c23)cc1,TGI,NCI-H460 lung,> 100 µM
same,TGI,UACC-62 melanoma,> 100 µM
same,TGI,M14 melanoma,> 100 µM
same,TGI,DLD-1 colon,> 100 µM
same,TGI,SK-MEL-2 melanoma,> 100 µM
same,TGI,CAKI-1 renal,> 100 µM
same,TGI,RXF 393 renal,> 100 µM
same,TGI,SN12C renal,> 100 µM
same,TGI,A549 NSCLC,> 100 µM
same,TGI,OVCAR-3 ovarian,> 100 µM
same,TGI,MOLT-4 leukemia,> 100 µM
same,TGI,U251 CNS,> 100 µM
same,TGI,COLO 205 colon,> 100 µM
same,TGI,HCT-116 colon,> 100 µM
same,TGI,RPMI-8226 leukemia,> 100 µM
same,TGI,UO-31 renal,> 100 µM
same,TGI,SK-OV-3 ovarian,> 100 µM
same,TGI,M19-MEL melanoma,> 100 µM
same,TGI,HCC-2998 colon,> 100 µM
same,TGI,HT29 colon,> 100 µM
same,TGI,KM20L2 colon,> 100 µM
same,TGI,ACHN renal,> 100 µM
same,TGI,SNB-19 CNS,> 100 µM
same,TGI,XF 498 CNS,> 100 µM
same,TGI,OVCAR-5 ovarian,> 100 µM
same,TGI,SK-MEL-28 melanoma,> 100 µM
same,TGI,UACC-257 melanoma,> 100 µM
same,TGI,DMS 114 small cell lung,> 100 µM
same,TGI,SF-268 CNS,> 100 µM
same,TGI,NCI-H226 lung,> 100 µM
same,TGI,HL-60(TB) leukemia,> 100 µM
same,TGI,OVCAR-8 ovarian,> 100 µM
same,TGI,CCRF-CEM leukemia,> 100 µM
same,TGI,SK-MEL-5 melanoma,> 100 µM
same,TGI,OVCAR-4 ovarian,> 100 µM
same,TGI,NCI-H23 lung,> 100 µM
same,TGI,MALME-3M melanoma,> 100 µM
same,TGI,SF-295 CNS,> 100 µM
same,TGI,HOP-62 NSCLC,> 100 µM
same,TGI,KM12 colon,> 100 µM
same,TGI,TK-10 renal,> 100 µM
same,TGI,SF-539 CNS,> 100 µM
same,TGI,IGROV1 ovarian,> 100 µM
same,TGI,K-562 leukemia,> 100 µM
same,TGI,HOP-92 NSCLC,> 100 µM
same,TGI,A498 renal,> 100 µM
same,TGI,SNB-78 CNS,> 100 µM
same,TGI,HCT-15 colon,> 100 µM
same,TGI,SNB-75 CNS,> 100 µM
